Assay [1] concerns Influenza A/TW/70058/09 (H1N1). Nature of the assay: microbe, parasite or virus in culture. Format: cell-based. The note with it: H1N1, read-out: EC50, viral plaque reduction assay.
Assay [2] has as its system Influenza A/TW/70066/09 (H1N1). The experiment in a line: microbe, parasite or virus in culture. The class given is cell-based. The conditions noted are these: H1N1, read-out: EC50, viral plaque reduction assay. On the technique in general: Plaques are areas of infected cells; plaque reduction assays count them against a control.

The structures appear in SMILES notation.

With `Nc1c(S(=O)(=O)O)cc(Nc2cccc(S(=O)(=O)CCOS(=O)(=O)O)c2)c2c1C(=O)c1ccccc1C2=O` [RB19, Remazol Brilliant Blue R], the figures for the EC50 in assay [1] and in assay [2] were 9.8 µM and 11.9 µM, respectively.

As usually defined, the EC50 is the concentration giving half of the maximal effect.

The record behind these values is publication PMC3577712 (PLoS ONE, 2013).
